4 molecules from ChEMBL document CHEMBL1159290, “Longicin and goniothalamicinone: novel bioactive monotetrahydrofuran acetogenins from Asimina longifolia” (J Nat Prod, 1995) can be followed below.

One data set has as its system MIA PaCa-2. The data set is described as follows: Cytotoxicity against human MIAPaCa2 cells after 7 days by MTT assay. The class given is functional. Particulars: for EC50: Homo sapiens, MIA PaCa-2, 168 h, read-out: ED50 (the source's name).
For another data set, the system named is HT-29. The data set is described as follows: Cytotoxicity against human HT-29 cells after 7 days by MTT assay. Particulars: for EC50: Homo sapiens, HT-29, 168 h, read-out: ED50 (the source's name). The class given is functional. On the technique in general: Tetrazolium dyes change colour on reduction, which living cells bring about.
A further data set deals with MCF7. The data set is described as follows: Cytotoxicity against human MCF7 cells after 7 days by MTT assay. The class given is functional. The settings on record: MCF7, 168 h, read-out: ED50 (the source's name).
Another data set deals with A498. The data set is described as follows: Cytotoxicity against human A498 cells after 7 days by MTT assay. The class given is functional. Particulars: for EC50: Homo sapiens, A498, 168 h, read-out: ED50 (the source's name).
Data set [1] is described as follows: Toxicity to brine shrimp. The class given is organism-based. Particulars: artemia, in vivo.
The test system of a further data set is PC-3. As to the kind of experiment: Cytotoxicity against human PC3 cells after 7 days by MTT assay. Type of data set: functional. The settings on record: PC-3, 168 h, read-out: ED50 (the source's name).
The subject of another data set is A549. The data set is described as follows: Cytotoxicity against human A549 cells after 7 days by MTT assay. Type of data set: functional.

In general, LC50 refers to the concentration that kills 50% of the test population.

Converted amounts (≈) assume the structure as drawn. Some results are limits rather than exact numbers.

Regarding `CCCCCCCCCCCCCC[C@H](O)[C@H]1CC[C@H]([C@H](O)CC[C@H](O)CCCCC[C@@H]2CC(CC(C)=O)C(=O)O2)O1` (mixture of isomers), the ED50 in the data set on MIA PaCa-2 is 2.37 ×10⁻⁴ ug/ml; with A549 it was 1.23 ×10⁻⁴ ug/ml. In addition, the EC50 with HT-29 worked out at 0.235 µg/mL; in the data set with MCF7, 0.186 µg/mL; in the data set on A498 it was 0.172 µg/mL; in the data set on PC-3, 0.201 µg/mL. The molecule also gave a 50% lethal concentration (LC50) in data set [1] of 0.46 µg/mL.
Turning to `CCCCCCCCCCCCCC[C@@H](O)[C@H]1CC[C@H]([C@H](O)CC[C@H](O)CCCCC[C@@H]2CC(CC(C)=O)C(=O)O2)O1` (mixture of isomers), the EC50 in the data set with MIA PaCa-2 turned out to be 0.00133 µg/mL; with MCF7, 0.967 µg/mL; with A498, 0.291 µg/mL; with PC-3, 0.137 µg/mL. Moreover, the ED50 amounted to 4.05 ×10⁻⁴ ug/ml in the data set on HT-29 and 2.06 ×10⁻⁵ ug/ml in the data set with A549. Also, the 50% lethal concentration (LC50) in data set [1] turned out to be 0.14 µg/mL.
Regarding `COc1cccc2c1C(=O)c1c(O)c3c(c(O)c1C2=O)C[C@@](O)(C(=O)CO)C[C@@H]3O[C@H]1C[C@H](N)[C@H](O)[C@H](C)O1` [DOXORUBICIN], the EC50 in the data set with MIA PaCa-2 was determined as 0.00195 µg/mL (≈ 3.59 nM); in the data set on HT-29 it was 0.0116 µg/mL (≈ 21.3 nM); with MCF7, 0.329 µg/mL (≈ 605 nM); with A498 it was 0.00197 µg/mL (≈ 3.62 nM); in the data set with A549 (Homo sapiens, A549, 168 h, read-out: ED50 (the source's name)) it was 0.00341 µg/mL (≈ 6.27 nM).
As to `CCCCCCCCCCCCCC[C@H](O)[C@H]1CC[C@H]([C@H](O)CC[C@H](O)CCCCC[C@@H](O)CC2=C[C@H](C)OC2=O)O1` [LONGICIN], the ED50 with MIA PaCa-2 was 1.25 ×10⁻⁹ ug/ml; with HT-29, 2.4 ×10⁻⁵ ug/ml; in the data set with A498, 1.99 ×10⁻⁴ ug/ml; in the data set on A549 it was 1.77 ×10⁻⁶ ug/ml. Besides, the results for the EC50 in the data set with MCF7 and in the data set with PC-3 were above 1 µg/mL and 0.00426 µg/mL (≈ 7.14 nM), respectively. In data set [1], the LC50 came to 0.11 µg/mL (≈ 184 nM).
